Experimental data taken from patent US5298494A, “Monosaccharides having anti-proliferation and anti-inflammatory activity, compositions and uses thereof” (Greenwich Pharmaceuticals Incorporated, priority 1993, dated 1994).
“And” between values parts separate entries of the source, which are not always exact repeats. Equal values may be shown once. Read-outs that look alike come from different tables or passages of the source.

System: T lymphocytes (normal mouse spleen cells) stimulated with ConA
Assay: Mouse Spleen Cell ConA Blastogenesis Assay
Assay type: cell-based, mouse (C57Bl/6)
Conditions: for inhibition at 100 µg/mL / inhibition at 1 µg/mL / inhibition at 2.5 µg/mL / inhibition at 10 µg/mL / inhibition at 25 µg/mL / inhibition at 0.01 µg/mL / inhibition at 0.001 µg/mL / inhibition at 0.1 µg/mL / inhibition at 300 µg/mL / inhibition at 750 µg/mL: Mus musculus, T-lymphocyte; for inhibition at 0.01 µg/mL: 0.01 ug/ml, read-out: % Change from Control (Table II)
Text: It is well known that several plant lectins, when cultured in vitro with lymphocytes, stimulate cellular activation and proliferation. Concanavolin, (ConA) selectively stimulates the blastogenic response of T lymphocytes.
Six to 8 week old male C57Bl/6 mice were purchased from Harlan Sprague Dawley (Indianapolis, Ind.).
Spleens were removed and were homogenized to obtain a single cell suspension. Erythrocytes were lysed by hypotonic shock. Upon determination of the viability and concentration of the lymphoid cells, they were adjusted to 4×10^6 cells/ml in culture medium (RPMI-1640) supplemented with 10% fetal bovine serum; 100 ug/ml streptomycin; 100 U/ml penicillin, 0.2M hepes buffer; 5×10^-5 M 2-mercaptoethanol and 2 mM glutamine). seeded into microtiter plate wells at 2×10^5 cells/0.050 ml/well. To these cultures were added various doses of experimental compounds and ConA at a final concentration of 4 or 1 ug/ml. Control cultures consisted of cells, ConA and culture medium containing the vehicle, DMSO only. […] For the testing of the methyl 1,3-O-isopropylidene-6-O-n-heptyl-α-D-fructofuranoside compound indomethacin and NDGA were used as controls. All cultures were run in triplicate.
Solutions of compounds of the invention in DMSO were prepared and dilutions were made in culture medium. Assay concentrations were either: 1, 2.5, 10, 25, 100, 300 and 750 ug/ml or 0.001, 0.01, 0.1, 1, 2.5, 10, 25 and 100 ug/ml.
Cultures were incubated for 3 days at 37° C. in a humidified atmosphere of 5% of CO2 in air. For the last 18 hours of culture, 1 uCi of ^3 H-thymidine was also incubated in each well. The cells were precipitated by a multi-channel harvester. The amount of ^3 H-thymidine incorporated by the cultures, as a measure of cell proliferation, was measured in a liquid scintillation counter. The amount of radioactive incorporation is proportional to the amount of cellular proliferation in individual wells. The students T test was used to determine the significance of the difference between experimental and control values.

[1] = ConA 1 ug/ml, compound 1 ug/ml, read-out: % change from control, ConA blastogenic response
[2] = ConA 1 ug/ml, compound 2.5 ug/ml, read-out: % change from control, ConA blastogenic response
[3] = ConA 1 ug/ml, compound 10 ug/ml, read-out: % change from control, ConA blastogenic response
[4] = ConA 1 ug/ml, compound 25 ug/ml, read-out: % change from control, ConA blastogenic response
[5] = ConA 1 ug/ml, compound 100 ug/ml, read-out: % change from control, ConA blastogenic response
[6] = ConA 4 ug/ml, compound 1 ug/ml, read-out: % change from control, ConA blastogenic response
[7] = ConA 4 ug/ml, compound 2.5 ug/ml, read-out: % change from control, ConA blastogenic response
[8] = ConA 4 ug/ml, compound 10 ug/ml, read-out: % change from control, ConA blastogenic response
[9] = ConA 4 ug/ml, compound 25 ug/ml, read-out: % change from control, ConA blastogenic response
[10] = ConA 4 ug/ml, compound 100 ug/ml, read-out: % change from control, ConA blastogenic response
[11] = ConA 1 ug/ml, compound 2.5 ug/ml
[12] = ConA 1 ug/ml, compound 10 ug/ml
[13] = ConA 1 ug/ml, compound 25 ug/ml
[14] = ConA 1 ug/ml, compound 100 ug/ml
[15] = ConA 4 ug/ml, compound 2.5 ug/ml
[16] = ConA 4 ug/ml, compound 10 ug/ml
[17] = ConA 4 ug/ml, compound 25 ug/ml
[18] = ConA 4 ug/ml, compound 100 ug/ml
[19] = ConA 1 ug/ml, compound 300 ug/ml
[20] = ConA 1 ug/ml, compound 750 ug/ml
[21] = ConA 4 ug/ml, compound 300 ug/ml
[22] = ConA 4 ug/ml, compound 750 ug/ml

`CC1(C)OCC(C2OC3OC(C)(C)OC3C2NCCCO)O1` [IIk, 1,2:5,6-Di-O-isopropylidene-3-deoxy-3-amino-1'-(3'-hydroxy-n-propyl)-α-D-glucofuranose] showed an inhibition at 100 µg/mL (100 ug/ml, read-out: strong inhibition of ConA stimulated T lymphocyte proliferation) of under 50%, an inhibition at 1 µg/mL [1] of 20% and an inhibition at 2.5 µg/mL [2] of 31%. It also gave an inhibition at 10 µg/mL [3] of 38%, an inhibition at 25 µg/mL [4] of 45% and an inhibition at 100 µg/mL [5] of 95%. It also gave an inhibition at 1 µg/mL [6] of 5%, an inhibition at 2.5 µg/mL [7] of 0% and an inhibition at 10 µg/mL [8] of 4%. It also gave an inhibition at 25 µg/mL [9] of 5% and an inhibition at 100 µg/mL [10] of 83%.
In the case of `Cc1cn([C@H]2C[C@H](N=[N+]=[N-])[C@@H](CO)O2)c(=O)[nH]c1=O` [AZT, reference compound], the “Blastogenic response of normal spleen cells to Con-A” value (“Blastogenic response … to Con-A” for short) (ConA 1 ug/ml, compound 0.001 ug/ml) is reported as 47.1 ± 4.5 × 10^-3 cpm, the “Blastogenic response … to Con-A” value (ConA 1 ug/ml, compound 0.01 ug/ml) is reported as 36.7 ± 3.1 × 10^-3 cpm and the “Blastogenic response … to Con-A” value (ConA 1 ug/ml, compound 0.1 ug/ml) is reported as 9.1 ± 5.8 × 10^-3 cpm. For the same compound, the “% change from control, ConA blastogenic response” value (“% change from control” below) (ConA 1 ug/ml, compound 1 ug/ml) was -99% and -96%, the “Blastogenic response … to Con-A” value (ConA 1 ug/ml, compound 1 ug/ml) was 1.7 ± 0.1 × 10^-3 cpm and the “% change from control” value [11] was -98%. For the same compound, the “Blastogenic response … to Con-A” value [11] was 0.7 ± 0.3 × 10^-3 cpm, the “% change from control” value [12] was -100% and -99% and the “Blastogenic response … to Con-A” value [12] was 0.5 ± 0.1 × 10^-3 cpm. For the same compound, the “% change from control” value [13] was -100% and -99%, the “Blastogenic response … to Con-A” value [13] was 0.5 ± 0.2 × 10^-3 cpm and the “% change from control” value [14] was -100% and -99%. The “Blastogenic response … to Con-A” value [14] was 0.3 ± 0.0 × 10^-3 cpm, the “Blastogenic response … to Con-A” value (ConA 4 ug/ml, compound 0.001 ug/ml) was 163.7 ± 8.0 × 10^-3 cpm and the “Blastogenic response … to Con-A” value (ConA 4 ug/ml, compound 0.01 ug/ml) was 158.1 × 10^-3 cpm. For the same compound, the “Blastogenic response … to Con-A” value (ConA 4 ug/ml, compound 0.1 ug/ml) was 24.5 ± 3.0 × 10^-3 cpm, the “% change from control” value (ConA 4 ug/ml, compound 1 ug/ml) was -99% and -97% and the “Blastogenic response … to Con-A” value (ConA 4 ug/ml, compound 1 ug/ml) was 4.0 ± 1.5 × 10^-3 cpm. The “% change from control” value [15] was -100% and -99%, the “Blastogenic response … to Con-A” value [15] was 1.9 ± 0.4 × 10^-3 cpm and the “% change from control” value [16] was -100% and -99%. The “Blastogenic response … to Con-A” value [16] was 1.4 ± 0.4 × 10^-3 cpm, the “Blastogenic response … to Con-A” value [17] was 1.3 ± 0.5 × 10^-3 cpm and the “% change from control” value [18] was -99% and -100%. For the same compound, the “Blastogenic response … to Con-A” value [18] was 0.6 ± 0.1 × 10^-3 cpm, the inhibition at 0.01 µg/mL (ConA 1 ug/ml) was 7% and the inhibition at 0.001 µg/mL (ConA 1 ug/ml, compound 0.001 ug/ml, read-out: % change from control, ConA blastogenic response) was 18%. For the same compound, the inhibition at 0.1 µg/mL (ConA 1 ug/ml, compound 0.1 ug/ml, read-out: % change from control, ConA blastogenic response) was 93%, the inhibition at 1 µg/mL [1] was 96% and the inhibition at 2.5 µg/mL [2] was 98%. It also gave an inhibition at 10 µg/mL [3] of 99%, an inhibition at 25 µg/mL [4] of 99% and an inhibition at 100 µg/mL [5] of 99%. The inhibition at 0.01 µg/mL (ConA 4 ug/ml) was 13%, the inhibition at 0.001 µg/mL (ConA 4 ug/ml, compound 0.001 ug/ml, read-out: % change from control, ConA blastogenic response) was -5% and the inhibition at 0.1 µg/mL (ConA 4 ug/ml, compound 0.1 ug/ml, read-out: % change from control, ConA blastogenic response) was 99%. It also gave an inhibition at 1 µg/mL [6] of 97%, an inhibition at 2.5 µg/mL [7] of 99% and an inhibition at 10 µg/mL [8] of 99%. It also gave an inhibition at 25 µg/mL [9] of 99% and an inhibition at 100 µg/mL [10] of 100%.
For `CC1(C)OC2OC3C(CSCCN4CCCC4)OC(C)(C)OC3C2O1` [IIIp, 1,2:3,5-Di-O-Isopropylidene-6-deoxy-6-thio-2'-(ethyl-N"-pyrrolidyl)-α-D-glucofuranose], the “Blastogenic response … to Con-A” value (ConA 1 ug/ml, compound 1 ug/ml) was 118,909 × 10^3 cpm, the “% change from control” value [12] was -23% and the “Blastogenic response … to Con-A” value [12] was 55,282 ± 17,762 cpm. For the same compound, the “Blastogenic response … to Con-A” value [13] was 101,268 ± 23,586 cpm, the “% change from control” value [14] was -11% and the “Blastogenic response … to Con-A” value [14] was 64,122 ± 7,847 cpm. For the same compound, the “% change from control” value [19] was -63%, the “Blastogenic response … to Con-A” value [19] was 26,948 ± 13,540 cpm and the “% change from control” value [20] was -94%. The “Blastogenic response … to Con-A” value [20] was 3,976 ± 1,922 cpm, the “% change from control” value (ConA 4 ug/ml, compound 1 ug/ml) was -17% and the “Blastogenic response … to Con-A” value (ConA 4 ug/ml, compound 1 ug/ml) was 81,109 × 10^3 cpm. The “% change from control” value [16] was -40%, the “Blastogenic response … to Con-A” value [16] was 58,381 ± 7,921 cpm and the “% change from control” value [17] was -33%. The “Blastogenic response … to Con-A” value [17] was 65,424 ± 13,480 cpm, the “% change from control” value [18] was -55% and the “Blastogenic response … to Con-A” value [18] was 43,864 ± 9,618 cpm. For the same compound, the “% change from control” value [21] was -91%, the “Blastogenic response … to Con-A” value [21] was 8,310 ± 945 × 10^3 cpm and the “% change from control” value [22] was -91%. The “Blastogenic response … to Con-A” value [22] was 8,402 ± 3,070 cpm, the inhibition at 10 µg/mL [3] was 23% and the inhibition at 100 µg/mL [5] was 11%. It also gave an inhibition at 300 µg/mL (ConA 1 ug/ml, compound 300 ug/ml, read-out: % change from control, ConA blastogenic response) of 63%, an inhibition at 750 µg/mL (ConA 1 ug/ml, compound 750 ug/ml, read-out: % change from control, ConA blastogenic response) of 94% and an inhibition at 1 µg/mL [6] of 17%. It also gave an inhibition at 10 µg/mL [8] of 40%, an inhibition at 25 µg/mL [9] of 33% and an inhibition at 100 µg/mL [10] of 55%. The inhibition at 300 µg/mL (ConA 4 ug/ml, compound 300 ug/ml, read-out: % change from control, ConA blastogenic response) was 91%, the inhibition at 750 µg/mL (ConA 4 ug/ml, compound 750 ug/ml, read-out: % change from control, ConA blastogenic response) was 91% and the “strong antiproliferative effect on ConA blastogenic response” value (concentration not given) was “greater than -50 % of control”.
